According to patent US8445409B2, “Use of 5-benzyloxymethyl-1,2-isoxazoline derivatives as a herbicide” (Moghu Research Center Ltd., priority 2007, dated 2013):

Experiments:
Corn = assay: Upland pot test, pre-/post-emergence spray, visual rating; format: in vivo, corn (ZEAMX); details: for Visual measurement: Crops, Corn: 2 weeks after spray, 0-10 scale (10=completely killed)
Description: (§1) To a rectangular plastic pot having a surface area of 300 cm^2, mixed soils including blend bed soil (Boonong, Horticultural Bed Soil No. 3) and sandy loam soil were filled (mixing ratio, 1:1). Seeds of the eight different types of weeds including gramineous weed such as barnyardgrass, large crabgrass, green foxtail, fall panicum, and broadleaf weed such as common cocklebur, velvetleaf, Indian joint-vetch, and morningglory were sown. To the other pot containing the same soil mixture, seeds of the five different types of crops including corn, soybean, cotton, wheat and rice were sown. Pots were kept in a greenhouse of which temperature was maintained at 25˜30° C. (day) or 15˜25° C. (night), and regularly watered.
(§2) After fourteen days and when the crops and the weeds reached their three-leaf stage, the other set of a crop pot and a weed pot were prepared by the same method as described above. Then, “test substance” was sprayed thereto. In this case, spray treatment to the plants after they have grown for two weeks corresponded to post-emergence treatment while spray treatment to the seeds right after the sowing corresponded to pre-emergence treatment. Spray was carried out by using a track sprayer (R&D Sprayer, USA) equipped with a Teejet 8002 nozzle (Spraying Systems Co., USA). Spray volume was adjusted to 300 L/ha. The spray solution was prepared by dissolving the “test substance” in acetone and adding the same volume of 0.2% (v/v) Tween 20 aqueous solution. Dosage of the test substance was 500, 250, 125, 62.5 or 31.3 g/ha. Two weeks after the spray of the test substance, efficacy and phytotoxic effect to the crops and the weeds were visually measured based on a 0 to 10 scale (0: no efficacy, 10: completely killed).

Zoysiagrass = assay: Turfgrass safety test (sod mat pots), visual phytotoxicity; format: in vivo, Zoysia japonica; details: in vivo
Description: Commercially available sod mats of zoysiagrass and bentgrass, Kentucky bluegrass, and perennial ryegrass were purchased. After cutting each turf sod mat in a size of 10 cm×20 cm, it was transplanted to a rectangular plastic pot having a surface area of 300 cm^2 wherein mixed soils including blend of a bed soil (Boonong, Horticultural Nursery Soil No. 3) and sandy loam soil were filled (mixing ratio, 1:1). After transplanting, the grass was mowed (0.5˜1.0 cm in height) once a week, and kept for one month in a greenhouse maintained at 25˜30° C. (day) or 15˜25° C. (night), then the test substance of the present invention was applied at dosage of 4, 2, 1 and 0.5 kg/ha. As a reference, Dithiopyr (32% EC, manufactured by Dongbu Hannong Chemical Company, KOREA) was applied at the recommended rate of 0.48 kg/ha, or twice or quadruple amount thereof, i.e., 0.96 and 1.92 kg/ha, respectively. Spray was made by a track sprayer equipped with a Teejet 8002 nozzle. Spray volume was adjusted to 2,000 L/ha, which was a typical value for an Asian (Korea and Japan) golf course. The spray solution was prepared by dissolving the “test substance” in acetone and adding the same volume of 0.2% (v/v) Tween 20 aqueous solution. Two, four or six weeks after the spray of the test substance, phytotoxicity to the turfgrass were visually evaluated based on 0 to 10 scale (0: no phytotoxic effect, 10: completely killed). The test was conducted in a randomized block design with a three replicates and the results were summarized in the following Table 2 is an average value of the replicates.

Cocklebur = assay: Upland pot test, pre-/post-emergence spray, visual rating; format: in vivo, common cocklebur (XANST); details: 2 weeks after spray, 0-10 scale (10=completely killed)
Description: as §1, §2

Velvetleaf = assay: as above; format: in vivo, velvetleaf (ABUTH); details: 2 weeks after spray, 0-10 scale (10=completely killed)
Description: as §1, §2

[1] = system: all the tested gramineous weeds; assay: Example 3-1, gramineous weeds as a group; format: in vivo, large crabgrass, annual bluegrass, goosegrass; details: PRE and POST timings, 0.25 kg/ha to 4 kg/ha
Description: (§3) Commercially available sod mats of zoysiagrass and bentgrass, Kentucky bluegrass, and perennial ryegrass were purchased. After cutting each turf sod mat in a size of 10 cm×20 cm, it was transplanted to a rectangular plastic pot having a surface area of 300 cm^2 wherein mixed soils including blend of a bed soil (Boonong, Horticultural Nursery Soil No. 3) and sandy loam soil were filled (mixing ratio, 1:1). After transplanting, the grass was mowed (0.5˜1.0 cm in height) once a week, and kept for one month in a greenhouse maintained at 25˜30° C. (day) or 15˜25° C. (night). Then three strips of 1 cm width were removed by excision with a scissor. The open space was filled with a new soil, and seeds of large crabgrass, annual bluegrass, or goosegrass were sown. The pots were kept in a greenhouse. When the said weeds were grown up to the 3 leaf stage, another set was prepared in the same method. The first set represented post-emergence (POST) and the second set represented pre-emergence (PRE) stages of the weeds (large crabgrass, annual bluegrass, goosegrass). Then the test compound was applied at 0.25, 0.5. 1.0, 2.0, and 4.0 kg/ha. […] Four weeks after the spray of the test substance, phytotoxicity to the turfgrass and herbicidal activity to the said weeds were visually evaluated based on 0 to 100 scale (0: no phytotoxic effect, 100: completely killed). […]

Large crabgrass = assay: Upland pot test, pre-/post-emergence spray, visual rating; format: in vivo, large crabgrass (DIGSA); details: pre-emergence application, 0.06~0.12 kg/ha
turfgrasses = assay: Example 3-1, turfgrasses as a group; format: in vivo; details: 2 kg/ha or below
Description: as §3

[2] = system: crops such as corn, rice, wheat, soybean and cotton; assay: Upland pot test, crops as a group; format: in vivo; details: pre-emergence, 500 g/ha
Description: as §1
After fourteen days and when the crops and the weeds reached their three-leaf stage, the other set of a crop pot and a weed pot were prepared by the same method as described above. Then, “test substance” was sprayed thereto. In this case, spray treatment to the plants after they have grown for two weeks corresponded to post-emergence treatment while spray treatment to the seeds right after the sowing corresponded to pre-emergence treatment. […] Two weeks after the spray of the test substance, efficacy and phytotoxic effect to the crops and the weeds were visually measured based on a 0 to 10 scale (0: no efficacy, 10: completely killed).

[3] = post-emergence foliar spray at three leaf stage, 31.2 g/ha
[4] = post-emergence foliar spray at three leaf stage, 62.5 g/ha
[5] = post-emergence foliar spray at three leaf stage, 125 g/ha
[6] = post-emergence foliar spray at three leaf stage, 250 g/ha
[7] = post-emergence foliar spray at three leaf stage, 500 g/ha
[8] = pre-emergence soil treatment, 31.2 g/ha
[9] = pre-emergence soil treatment, 62.5 g/ha
[10] = pre-emergence soil treatment, 125 g/ha
[11] = pre-emergence soil treatment, 250 g/ha
[12] = pre-emergence soil treatment, 500 g/ha

Structure (SMILES): Cc1ccsc1C1=NOC(C)(COCc2c(F)cccc2F)C1 (stereo not drawn) [test substance, 5-(2,6-difluorobenzyl)oxymethyl-5-methyl-3-(4-methylthiophen-5-yl)-1,2-isoxazoline]
- Visual measurement: Crops, Corn (Corn; [3]): 0
- Visual measurement: Crops, Corn (Corn; [4]): 2
- Visual measurement: Crops, Corn (Corn; [5]): 2
- Visual measurement: Crops, Corn (Corn; [6]): 3
- Visual measurement: Crops, Corn (Corn; [7]): 8
- Safety to corn (in words) (Corn; post-emergence treatment): not safe
- Visual measurement: Crops, Corn (Corn; [8]): 0
- Visual measurement: Crops, Corn (Corn; [9]): 0
- Visual measurement: Crops, Corn (Corn; [10]): 0
- Visual measurement: Crops, Corn (Corn; [11]): 0
- Visual measurement: Crops, Corn (Corn; [12]): 0
- Phytotoxic effect, visual assessment: Zoysiagrass Week 6 (Zoysiagrass; Zoysia japonica (zoysiagrass), 6 weeks): 0.0
- Phytotoxic effect, visual assessment: Zoysiagrass Week 2 (Zoysiagrass): 2.7
- Phytotoxic effect, visual assessment: Zoysiagrass Week 4 (Zoysiagrass): 1.7
- Phytotoxic effect, visual assessment: Zoysiagrass Week 6 (Zoysiagrass): 1.0
- Phytotoxic effect, visual assessment: Zoysiagrass Week 2 (Zoysiagrass; zoysiagrass (Zoysia japonica), 2 weeks): 0.0
- Phytotoxic effect, visual assessment: Zoysiagrass Week 4 (Zoysiagrass; zoysiagrass (Zoysia japonica), 4 weeks): 0.0
- Phytotoxic effect, visual assessment: Zoysiagrass Week 6 (Zoysiagrass; zoysiagrass (Zoysia japonica), 6 weeks): 0.0
- Visual measurement: Broadleaf weed, Cocklebur (Cocklebur; [3]): 0
- Visual measurement: Broadleaf weed, Cocklebur (Cocklebur; [4]): 0
- Visual measurement: Broadleaf weed, Cocklebur (Cocklebur; [5]): 1
- Visual measurement: Broadleaf weed, Cocklebur (Cocklebur; [6]): 3
- Visual measurement: Broadleaf weed, Cocklebur (Cocklebur; [7]): 7
- Visual measurement: Broadleaf weed, Cocklebur (Cocklebur; [8]): 0
- Visual measurement: Broadleaf weed, Cocklebur (Cocklebur; [9]): 0
- Visual measurement: Broadleaf weed, Cocklebur (Cocklebur; [10]): 0
- Visual measurement: Broadleaf weed, Cocklebur (Cocklebur; [11]): 0
- Visual measurement: Broadleaf weed, Cocklebur (Cocklebur; [12]): 0
- Visual measurement: Broadleaf weed, Velvetleaf (Velvetleaf; [3]): 0
- Visual measurement: Broadleaf weed, Velvetleaf (Velvetleaf; [4]): 0
- Visual measurement: Broadleaf weed, Velvetleaf (Velvetleaf; [5]): 1
- Visual measurement: Broadleaf weed, Velvetleaf (Velvetleaf; [6]): 3
- Visual measurement: Broadleaf weed, Velvetleaf (Velvetleaf; [7]): 6
- Visual measurement: Broadleaf weed, Velvetleaf (Velvetleaf; [8]): 0
- Visual measurement: Broadleaf weed, Velvetleaf (Velvetleaf; [9]): 0
- Visual measurement: Broadleaf weed, Velvetleaf (Velvetleaf; [10]): 0
- Visual measurement: Broadleaf weed, Velvetleaf (Velvetleaf; [11]): 0
- Visual measurement: Broadleaf weed, Velvetleaf (Velvetleaf; [12]): 0
- Control of tested gramineous weeds (in words) [1]: very effectively
- Control of large crabgrass (in words) (Large crabgrass): almost completely
- Visible injury to turfgrasses (in words) (turfgrasses): did not show any visible injury
- Phytotoxic effect to crops (in words) [2]: completely safe without any phytotoxic effect
